According to ChEMBL document CHEMBL1159233, “Antitumor agents, 154. Cytotoxic and antimitotic flavonols from Polanisia dodecandra” (J Nat Prod, 1995):
Converted amounts (≈) assume the structure as drawn. The source made the active and inactive calls. The rule behind the calls is not given here.

Columns and labels:
[1] = Displacement of [3H]colchicine from tubulin at 5 uM
[2] = Displacement of [3H]colchicine from tubulin at 50 uM
[3] = Inhibition of tubulin polymerization
[4] = system: U-251; test: Growth inhibition of human U251 cells; type: functional
[5] = system: HOP-62; test: Growth inhibition of human HOP62 cells; type: functional
[6] = system: NCI-H226; test: Growth inhibition of human NCI-H226 cells; type: functional
[7] = system: OVCAR-3; test: Growth inhibition of human OVCAR-3 cells; type: functional
[8] = system: SK-MEL-5; test: Growth inhibition of human SK-MEL-5 cells; type: functional
[9] = system: SR; test: Growth inhibition of human SR cells; type: functional
[10] = system: SK-OV-3; test: Growth inhibition of human SKOV3 cells; type: functional
[11] = system: SNB-75; test: Growth inhibition of human SNB75 cells; type: functional
[12] = system: NCI-H460; test: Growth inhibition of human NCI-H460 cells; type: functional
[13] = system: UO-31; test: Growth inhibition of human UO31 cells; type: functional
[14] = Cytotoxicity against human PRMI7951 cells; type: functional; conditions: read-out: ED50 (the source's name)
[15] = system: HL-60(TB); test: Growth inhibition of human HL-60(TB) cells; type: functional
[16] = system: NCI-H522; test: Growth inhibition of human NCI-H522 cells; type: functional
[17] = system: HCT-116; test: Growth inhibition of human HCT116 cells; type: functional
[18] = system: SF-539; test: Growth inhibition of human SF539 cells; type: functional
[19] = system: TE-671; test: Cytotoxicity against human TE671 cells; type: functional; conditions: read-out: ED50 (the source's name)
[20] = Growth inhibition of human DMS144 cells; type: functional
[21] = system: P388; test: Cytotoxicity against mouse P388 cells; type: functional; conditions: read-out: ED50 (the source's name)
[22] = system: HCT-8; test: Cytotoxicity against human HCT8 cells; type: functional
[23] = system: SF-268; test: Growth inhibition of human SF268 cells; type: functional
[24] = system: KB; test: Cytotoxicity against human KB cells; type: functional; conditions: read-out: ED50 (the source's name)
[25] = system: A549; test: Cytotoxicity against human A549 cells; type: functional
[26] = read-out: ED50 (the source's name)

Compound: COc1cc([C@@H]2c3cc4c(cc3[C@H](O)[C@H]3COC(=O)[C@H]23)OCO4)cc(OC)c1OC
- Activity [1]: 82%

Compound: COc1ccc(-c2oc3cc(O)c(OC)c(O)c3c(=O)c2OC)cc1O [CENTAUREIDIN]
- Activity [1]: 35%
- Activity [2]: 76%
- IC50 [3]: 2000 nM

Compound: COc1ccc(-c2oc3c(OC)c(OC)c(OC)c(O)c3c(=O)c2OC)cc1O
- GI50 [4]: < 10 nM
- TGI ([4]; read-out: pTGI (converted)): 229 nM
- GI50 [5]: 47.9 nM
- TGI ([5]; read-out: pTGI (converted)): 4790 nM
- Activity [1]: 59%
- GI50 [6]: 61.7 nM
- TGI ([6]; read-out: pTGI (converted)): 363 nM
- Activity [2]: 89%
- GI50 [7]: < 10 nM
- TGI ([7]; read-out: pTGI): < 10 nM
- GI50 [8]: < 10 nM
- TGI ([8]; read-out: pTGI (converted)): 1000 nM
- GI50 [9]: < 10 nM
- TGI ([9]; read-out: pTGI (converted)): 112 nM
- GI50 [10]: < 10 nM
- TGI ([10]; read-out: pTGI (converted)): 417 nM
- GI50 [11]: < 10 nM
- TGI ([11]; read-out: pTGI): < 10 nM
- GI50 [12]: < 10 nM
- TGI ([12]; read-out: pTGI (converted)): 138 nM
- GI50 [13]: < 10 nM
- TGI ([13]; read-out: pTGI (converted)): 5750 nM
- EC50 [14]: 0.55 µg/mL (≈ 1.36 µM)
- GI50 [15]: < 10 nM
- TGI ([15]; read-out: pTGI): < 10 nM
- GI50 [16]: < 10 nM
- TGI ([16]; read-out: pTGI): < 10 nM
- GI50 [17]: < 10 nM
- TGI ([17]; read-out: pTGI (converted)): 123 nM
- GI50 [18]: < 10 nM
- TGI ([18]; read-out: pTGI): < 10 nM
- IC50 [3]: 830 nM
- EC50 [19]: 0.069 µg/mL (≈ 0.171 µM)
- GI50 [20]: < 10 nM
- TGI ([20]; read-out: pTGI): < 10 nM
- EC50 [21]: 0.055 µg/mL (≈ 0.136 µM)
- EC50 [22, 26]: 4.4 µg/mL (≈ 10.9 µM)
- GI50 [23]: < 10 nM
- TGI ([23]; read-out: pTGI (converted)): 2820 nM
- EC50 [24]: 0.045 µg/mL (≈ 0.111 µM)
- EC50 [25, 26]: 0.6 µg/mL (≈ 1.48 µM)

Compound: COc1cc(-c2oc3c(OC)c(OC)c(OC)c(O)c3c(=O)c2OC)ccc1O
- EC50 [14]: 5.93 µg/mL (≈ 14.7 µM)
- EC50 [19]: 0.98 µg/mL (≈ 2.42 µM)
- EC50 [21]: 6.52 µg/mL (≈ 16.1 µM)
- Activity [22]: inactive
- EC50 [24]: 8.38 µg/mL (≈ 20.7 µM)
- Activity [25]: inactive
